Data as given in PubChem BioAssay (NCI).
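Grown in 96-well plates, cells were treated for 48 hours with each compound at five concentrations. Insufficient inhibition: endpoint recorded as highest concentration tested. TGI: concentration producing complete growth inhibition.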

Experiments:
Experiment in all cases: growth of human tumour cells (NCI), 48 h
786-0 renal = test system: 786-0 renal
A549 NSCLC = test system: A549 NSCLC
ACHN renal = test system: ACHN renal
BT-549 breast = test system: BT-549 breast
CAKI-1 renal = test system: CAKI-1 renal
CCRF-CEM leukemia = test system: CCRF-CEM leukemia
COLO 205 colon = test system: COLO 205 colon
DU-145 prostate = test system: DU-145 prostate
EKVX NSCLC = test system: EKVX NSCLC
HCC-2998 colon = test system: HCC-2998 colon
HCT-116 colon = test system: HCT-116 colon
HCT-15 colon = test system: HCT-15 colon
HL-60(TB) leukemia = test system: HL-60(TB) leukemia
HOP-62 NSCLC = test system: HOP-62 NSCLC
HT29 colon = test system: HT29 colon
IGROV1 ovarian = test system: IGROV1 ovarian
K-562 leukemia = test system: K-562 leukemia
KM12 colon = test system: KM12 colon
M14 melanoma = test system: M14 melanoma
MALME-3M melanoma = test system: MALME-3M melanoma
MCF7 breast = test system: MCF7 breast
MDA-N = test system: MDA-N
MOLT-4 leukemia = test system: MOLT-4 leukemia
NCI-H226 lung = test system: NCI-H226 lung
NCI-H23 lung = test system: NCI-H23 lung
NCI-H460 lung = test system: NCI-H460 lung
NCI-H522 lung = test system: NCI-H522 lung
NCI/ADR-RES ovarian = test system: NCI/ADR-RES ovarian
OVCAR-3 ovarian = test system: OVCAR-3 ovarian
OVCAR-4 ovarian = test system: OVCAR-4 ovarian
OVCAR-5 ovarian = test system: OVCAR-5 ovarian
OVCAR-8 ovarian = test system: OVCAR-8 ovarian
PC-3 prostate = test system: PC-3 prostate
RPMI-8226 leukemia = test system: RPMI-8226 leukemia
RXF 393 renal = test system: RXF 393 renal
SF-268 CNS = test system: SF-268 CNS
SF-295 CNS = test system: SF-295 CNS
SF-539 CNS = test system: SF-539 CNS
SK-MEL-2 melanoma = test system: SK-MEL-2 melanoma
SK-MEL-28 melanoma = test system: SK-MEL-28 melanoma
SK-MEL-5 melanoma = test system: SK-MEL-5 melanoma
SK-OV-3 ovarian = test system: SK-OV-3 ovarian
SN12C renal = test system: SN12C renal
SNB-19 CNS = test system: SNB-19 CNS
SNB-75 CNS = test system: SNB-75 CNS
SR leukemia = test system: SR leukemia
SW-620 colon = test system: SW-620 colon
TK-10 renal = test system: TK-10 renal
U251 CNS = test system: U251 CNS
UACC-257 melanoma = test system: UACC-257 melanoma
UACC-62 melanoma = test system: UACC-62 melanoma
UO-31 renal = test system: UO-31 renal
A498 renal = test system: A498 renal
HOP-92 NSCLC = test system: HOP-92 NSCLC
LOX IMVI melanoma = test system: LOX IMVI melanoma
MDA-MB-231 breast = test system: MDA-MB-231 breast
MDA-MB-435 = test system: MDA-MB-435
T-47D breast = test system: T-47D breast

`CC(=O)CC(=O)c1cc2c(=O)oc(C)cc2oc1=O` gave a TGI (786-0 renal) of over 37.5 µM, a TGI (A549 NSCLC) of over 37.5 µM and a TGI (ACHN renal) of over 37.5 µM. It also gave a TGI (BT-549 breast) of over 37.5 µM, a TGI (CAKI-1 renal) of over 37.5 µM and a TGI (CCRF-CEM leukemia) of over 37.5 µM. The TGI (COLO 205 colon) was over 37.5 µM, the TGI (DU-145 prostate) was over 37.5 µM and the TGI (EKVX NSCLC) was over 37.5 µM. For the same compound, the TGI (HCC-2998 colon) was over 37.5 µM, the TGI (HCT-116 colon) was over 37.5 µM and the TGI (HCT-15 colon) was over 37.5 µM. The TGI (HL-60(TB) leukemia) was over 37.5 µM, the TGI (HOP-62 NSCLC) was over 37.5 µM and the TGI (HT29 colon) was over 37.5 µM. For the same compound, the TGI (IGROV1 ovarian) was over 37.5 µM, the TGI (K-562 leukemia) was over 37.5 µM and the TGI (KM12 colon) was over 37.5 µM. It also gave a TGI (M14 melanoma) of over 37.5 µM, a TGI (MALME-3M melanoma) of over 37.5 µM and a TGI (MCF7 breast) of over 37.5 µM. The TGI (MDA-N) was over 37.5 µM, the TGI (MOLT-4 leukemia) was over 37.5 µM and the TGI (NCI-H226 lung) was over 37.5 µM. The TGI (NCI-H23 lung) was over 37.5 µM, the TGI (NCI-H460 lung) was over 37.5 µM and the TGI (NCI-H522 lung) was over 37.5 µM. The TGI (NCI/ADR-RES ovarian) was over 37.5 µM, the TGI (OVCAR-3 ovarian) was over 37.5 µM and the TGI (OVCAR-4 ovarian) was over 37.5 µM. It also gave a TGI (OVCAR-5 ovarian) of over 37.5 µM, a TGI (OVCAR-8 ovarian) of over 37.5 µM and a TGI (PC-3 prostate) of over 37.5 µM. It also gave a TGI (RPMI-8226 leukemia) of over 37.5 µM, a TGI (RXF 393 renal) of over 37.5 µM and a TGI (SF-268 CNS) of over 37.5 µM. It also gave a TGI (SF-295 CNS) of over 37.5 µM, a TGI (SF-539 CNS) of over 37.5 µM and a TGI (SK-MEL-2 melanoma) of over 37.5 µM. For the same compound, the TGI (SK-MEL-28 melanoma) was over 37.5 µM, the TGI (SK-MEL-5 melanoma) was over 37.5 µM and the TGI (SK-OV-3 ovarian) was over 37.5 µM. It also gave a TGI (SN12C renal) of over 37.5 µM, a TGI (SNB-19 CNS) of over 37.5 µM and a TGI (SNB-75 CNS) of over 37.5 µM. It also gave a TGI (SR leukemia) of over 37.5 µM, a TGI (SW-620 colon) of over 37.5 µM and a TGI (TK-10 renal) of over 37.5 µM. For the same compound, the TGI (U251 CNS) was over 37.5 µM, the TGI (UACC-257 melanoma) was over 37.5 µM and the TGI (UACC-62 melanoma) was over 37.5 µM. It also gave a TGI (UO-31 renal) of over 37.5 µM.

For `CC(=O)/C(=C/n1c(=S)sc2ccccc21)C(=O)Nc1ccccc1C`, the TGI (786-0 renal) was over 100 µM, the TGI (A498 renal) was over 100 µM and the TGI (A549 NSCLC) was over 100 µM. For the same compound, the TGI (ACHN renal) was over 100 µM, the TGI (BT-549 breast) was over 100 µM and the TGI (CAKI-1 renal) was over 100 µM. The TGI (COLO 205 colon) was over 100 µM, the TGI (DU-145 prostate) was over 100 µM and the TGI (EKVX NSCLC) was over 100 µM. It also gave a TGI (HCC-2998 colon) of over 100 µM, a TGI (HCT-116 colon) of over 100 µM and a TGI (HCT-15 colon) of over 100 µM. For the same compound, the TGI (HL-60(TB) leukemia) was over 100 µM, the TGI (HOP-62 NSCLC) was over 100 µM and the TGI (HOP-92 NSCLC) was over 100 µM. It also gave a TGI (HT29 colon) of over 100 µM, a TGI (IGROV1 ovarian) of over 100 µM and a TGI (KM12 colon) of over 100 µM. The TGI (LOX IMVI melanoma) was over 100 µM, the TGI (M14 melanoma) was over 100 µM and the TGI (MCF7 breast) was over 100 µM. The TGI (MDA-MB-231 breast) was over 100 µM, the TGI (MDA-MB-435) was over 100 µM and the TGI (MDA-N) was over 100 µM. For the same compound, the TGI (MOLT-4 leukemia) was over 100 µM, the TGI (NCI-H226 lung) was over 100 µM and the TGI (NCI-H23 lung) was over 100 µM. The TGI (NCI-H460 lung) was over 100 µM, the TGI (NCI/ADR-RES ovarian) was over 100 µM and the TGI (OVCAR-3 ovarian) was over 100 µM. For the same compound, the TGI (OVCAR-4 ovarian) was over 100 µM, the TGI (OVCAR-5 ovarian) was over 100 µM and the TGI (OVCAR-8 ovarian) was over 100 µM. It also gave a TGI (RXF 393 renal) of over 100 µM, a TGI (SF-268 CNS) of over 100 µM and a TGI (SF-295 CNS) of over 100 µM. The TGI (SF-539 CNS) was over 100 µM, the TGI (SK-MEL-2 melanoma) was over 100 µM and the TGI (SK-MEL-28 melanoma) was over 100 µM. It also gave a TGI (SK-MEL-5 melanoma) of over 100 µM, a TGI (SK-OV-3 ovarian) of over 100 µM and a TGI (SN12C renal) of over 100 µM. The TGI (SNB-19 CNS) was over 100 µM, the TGI (SNB-75 CNS) was over 100 µM and the TGI (SW-620 colon) was over 100 µM. It also gave a TGI (T-47D breast) of over 100 µM, a TGI (TK-10 renal) of over 100 µM and a TGI (U251 CNS) of over 100 µM. It also gave a TGI (UACC-257 melanoma) of over 100 µM, a TGI (UACC-62 melanoma) of over 100 µM and a TGI (UO-31 renal) of over 100 µM.
